Assay results taken from patent publication US11865157B2, “Compositions and methods of targeting cancer stem cells” (University of Houston System, priority 2016, dated 2024).
Numbered stars: 1 amine (or outer) side, 2 acyl side, 3 side chain; on linkers, the order of the positions; unused ones are H or OH. Square brackets hold non-standard residues; d marks the D form. Peptide text beside a SMILES is read from it. ξ: configuration not given here. Gly(N-piperonyl) = O=C(O)CNCc1ccc2c(c1)OCO2; X1 = CC(c1ccccc1)N(CC(=O)[*:2])[*:1]; Nlys = NCCCCNCC(=O)O; ξK = NCCCCC(N)C(=O)O; ξM = CSCCC(N)C(=O)O; Nme = COCCNCC(=O)O

What was measured:
[1] = target: T1, plectin (Homo sapiens, UniProt Q15149); experiment: Magnetic-bead binding assay with plectin antibody competition or plectin siRNA knockdown
T1 construct: endogenous in cells; host or cells: H358, H1693, H1975, H1993 cells
Method: Unsorted H358 cells were plated on a 6-well plate and grown to 80% confluence. For each well, 9 μL of Lipofectamine RNAiMAX (Thermo Fisher) was mixed with 3 μL of 10 μM siRNA, either silencer select s10644 plectin or silencer select negative control 1 (Thermo Fisher), in serum-free RPMI and incubated for 5 minutes. The mixture was then added to the well and incubated for 1 to 4 days before testing. Magnetic binding assays were performed on harvested cells as described above for binding evaluation.
(§1) Plectin expression was directed tested on PCS2-bound cells from H358, HCC4017, H460, H1299, H2073, H1693, H1993, H1975 cells by RT-QPCR (FIG. 22A). […] To determine if PCS2 and the plectin antibody compete for binding, the magnetic-bead binding assay was repeated in the presence of the plectin antibody. […] Since previous reports have shown cells to be sufficiently stable for further assays with plectin knock-down, plectin knockdown was conducted in H358, H1693, H1975 and H1993 cells using siRNA using the magnetic-bead binding assay described above. […] From these observations, it was concluded that plectin is the cell-surface marker that PCS2 is targeting.

[2] = system: lung cancer cell lines (HCC4017, H358, H366, H460, H1299, H2073, H1693, H1993, H1975); experiment: RT-qPCR of CSC markers and PLEC in PCS2-bead bound vs unbound fractions of lung cancer cell lines; assay type: cell-based
Method: Using the same basic approach, peptoid-bound and peptoid-unbound fractions were generated from the lung cancer cells lines HCC4017, H358, H366, H460 for the PCS2 compound, and the relative expression of CSC marker SOX2 was evaluated between each fraction.
To confirm the binding specificity of PCS2 to CSCs, CSCs isolated from H358 cells and normal mesenchymal stem cells (MSCs) were exposed to PCS2-carrying beads as described in Example 3, and then separated by magnet into peptoid-bound and peptoid-unbound fractions (FIG. 19A). […] To further evaluate PCS2 specificity towards CSCs, HCC4017, H460, H1299, H2073, H1693, H1993, and H1975 cells were exposed to PCS2-carrying beads, and then separated by magnet into peptoid-bound and peptoid-unbound fractions. RNA from both bound and unbound fractions was harvested and analyzed by RT-qPCR to determine the relative expression of several known CSC biomarkers in each fraction was assessed, including expression of ALDH1A3 (FIG. 19B), CD133 (FIG. 19C), CD44 (FIG. 19D), and SOX2 (FIG. 19E). CD44 and SOX2 expressions were high on PCS2-coated magnetic-bead bound fractions from the almost all cell lines having higher expression of CSC biomarkers compared to the unsorted or unbound fractions confirming that the capacity of PCS2 to bind to CSCs is not exclusive to H358 cells. The correlation to ALDH1A3 and CD133 were varied, which is typical due to the high heterogeneity of CSC biomarker expressions, and there are no 100% biomarker correlations exists.
as §1

[3] = HCC4017, H460, H1299, H2073, H1693, H1993, H1975, almost all cell lines

T1 sequence (Q15149 whole entry): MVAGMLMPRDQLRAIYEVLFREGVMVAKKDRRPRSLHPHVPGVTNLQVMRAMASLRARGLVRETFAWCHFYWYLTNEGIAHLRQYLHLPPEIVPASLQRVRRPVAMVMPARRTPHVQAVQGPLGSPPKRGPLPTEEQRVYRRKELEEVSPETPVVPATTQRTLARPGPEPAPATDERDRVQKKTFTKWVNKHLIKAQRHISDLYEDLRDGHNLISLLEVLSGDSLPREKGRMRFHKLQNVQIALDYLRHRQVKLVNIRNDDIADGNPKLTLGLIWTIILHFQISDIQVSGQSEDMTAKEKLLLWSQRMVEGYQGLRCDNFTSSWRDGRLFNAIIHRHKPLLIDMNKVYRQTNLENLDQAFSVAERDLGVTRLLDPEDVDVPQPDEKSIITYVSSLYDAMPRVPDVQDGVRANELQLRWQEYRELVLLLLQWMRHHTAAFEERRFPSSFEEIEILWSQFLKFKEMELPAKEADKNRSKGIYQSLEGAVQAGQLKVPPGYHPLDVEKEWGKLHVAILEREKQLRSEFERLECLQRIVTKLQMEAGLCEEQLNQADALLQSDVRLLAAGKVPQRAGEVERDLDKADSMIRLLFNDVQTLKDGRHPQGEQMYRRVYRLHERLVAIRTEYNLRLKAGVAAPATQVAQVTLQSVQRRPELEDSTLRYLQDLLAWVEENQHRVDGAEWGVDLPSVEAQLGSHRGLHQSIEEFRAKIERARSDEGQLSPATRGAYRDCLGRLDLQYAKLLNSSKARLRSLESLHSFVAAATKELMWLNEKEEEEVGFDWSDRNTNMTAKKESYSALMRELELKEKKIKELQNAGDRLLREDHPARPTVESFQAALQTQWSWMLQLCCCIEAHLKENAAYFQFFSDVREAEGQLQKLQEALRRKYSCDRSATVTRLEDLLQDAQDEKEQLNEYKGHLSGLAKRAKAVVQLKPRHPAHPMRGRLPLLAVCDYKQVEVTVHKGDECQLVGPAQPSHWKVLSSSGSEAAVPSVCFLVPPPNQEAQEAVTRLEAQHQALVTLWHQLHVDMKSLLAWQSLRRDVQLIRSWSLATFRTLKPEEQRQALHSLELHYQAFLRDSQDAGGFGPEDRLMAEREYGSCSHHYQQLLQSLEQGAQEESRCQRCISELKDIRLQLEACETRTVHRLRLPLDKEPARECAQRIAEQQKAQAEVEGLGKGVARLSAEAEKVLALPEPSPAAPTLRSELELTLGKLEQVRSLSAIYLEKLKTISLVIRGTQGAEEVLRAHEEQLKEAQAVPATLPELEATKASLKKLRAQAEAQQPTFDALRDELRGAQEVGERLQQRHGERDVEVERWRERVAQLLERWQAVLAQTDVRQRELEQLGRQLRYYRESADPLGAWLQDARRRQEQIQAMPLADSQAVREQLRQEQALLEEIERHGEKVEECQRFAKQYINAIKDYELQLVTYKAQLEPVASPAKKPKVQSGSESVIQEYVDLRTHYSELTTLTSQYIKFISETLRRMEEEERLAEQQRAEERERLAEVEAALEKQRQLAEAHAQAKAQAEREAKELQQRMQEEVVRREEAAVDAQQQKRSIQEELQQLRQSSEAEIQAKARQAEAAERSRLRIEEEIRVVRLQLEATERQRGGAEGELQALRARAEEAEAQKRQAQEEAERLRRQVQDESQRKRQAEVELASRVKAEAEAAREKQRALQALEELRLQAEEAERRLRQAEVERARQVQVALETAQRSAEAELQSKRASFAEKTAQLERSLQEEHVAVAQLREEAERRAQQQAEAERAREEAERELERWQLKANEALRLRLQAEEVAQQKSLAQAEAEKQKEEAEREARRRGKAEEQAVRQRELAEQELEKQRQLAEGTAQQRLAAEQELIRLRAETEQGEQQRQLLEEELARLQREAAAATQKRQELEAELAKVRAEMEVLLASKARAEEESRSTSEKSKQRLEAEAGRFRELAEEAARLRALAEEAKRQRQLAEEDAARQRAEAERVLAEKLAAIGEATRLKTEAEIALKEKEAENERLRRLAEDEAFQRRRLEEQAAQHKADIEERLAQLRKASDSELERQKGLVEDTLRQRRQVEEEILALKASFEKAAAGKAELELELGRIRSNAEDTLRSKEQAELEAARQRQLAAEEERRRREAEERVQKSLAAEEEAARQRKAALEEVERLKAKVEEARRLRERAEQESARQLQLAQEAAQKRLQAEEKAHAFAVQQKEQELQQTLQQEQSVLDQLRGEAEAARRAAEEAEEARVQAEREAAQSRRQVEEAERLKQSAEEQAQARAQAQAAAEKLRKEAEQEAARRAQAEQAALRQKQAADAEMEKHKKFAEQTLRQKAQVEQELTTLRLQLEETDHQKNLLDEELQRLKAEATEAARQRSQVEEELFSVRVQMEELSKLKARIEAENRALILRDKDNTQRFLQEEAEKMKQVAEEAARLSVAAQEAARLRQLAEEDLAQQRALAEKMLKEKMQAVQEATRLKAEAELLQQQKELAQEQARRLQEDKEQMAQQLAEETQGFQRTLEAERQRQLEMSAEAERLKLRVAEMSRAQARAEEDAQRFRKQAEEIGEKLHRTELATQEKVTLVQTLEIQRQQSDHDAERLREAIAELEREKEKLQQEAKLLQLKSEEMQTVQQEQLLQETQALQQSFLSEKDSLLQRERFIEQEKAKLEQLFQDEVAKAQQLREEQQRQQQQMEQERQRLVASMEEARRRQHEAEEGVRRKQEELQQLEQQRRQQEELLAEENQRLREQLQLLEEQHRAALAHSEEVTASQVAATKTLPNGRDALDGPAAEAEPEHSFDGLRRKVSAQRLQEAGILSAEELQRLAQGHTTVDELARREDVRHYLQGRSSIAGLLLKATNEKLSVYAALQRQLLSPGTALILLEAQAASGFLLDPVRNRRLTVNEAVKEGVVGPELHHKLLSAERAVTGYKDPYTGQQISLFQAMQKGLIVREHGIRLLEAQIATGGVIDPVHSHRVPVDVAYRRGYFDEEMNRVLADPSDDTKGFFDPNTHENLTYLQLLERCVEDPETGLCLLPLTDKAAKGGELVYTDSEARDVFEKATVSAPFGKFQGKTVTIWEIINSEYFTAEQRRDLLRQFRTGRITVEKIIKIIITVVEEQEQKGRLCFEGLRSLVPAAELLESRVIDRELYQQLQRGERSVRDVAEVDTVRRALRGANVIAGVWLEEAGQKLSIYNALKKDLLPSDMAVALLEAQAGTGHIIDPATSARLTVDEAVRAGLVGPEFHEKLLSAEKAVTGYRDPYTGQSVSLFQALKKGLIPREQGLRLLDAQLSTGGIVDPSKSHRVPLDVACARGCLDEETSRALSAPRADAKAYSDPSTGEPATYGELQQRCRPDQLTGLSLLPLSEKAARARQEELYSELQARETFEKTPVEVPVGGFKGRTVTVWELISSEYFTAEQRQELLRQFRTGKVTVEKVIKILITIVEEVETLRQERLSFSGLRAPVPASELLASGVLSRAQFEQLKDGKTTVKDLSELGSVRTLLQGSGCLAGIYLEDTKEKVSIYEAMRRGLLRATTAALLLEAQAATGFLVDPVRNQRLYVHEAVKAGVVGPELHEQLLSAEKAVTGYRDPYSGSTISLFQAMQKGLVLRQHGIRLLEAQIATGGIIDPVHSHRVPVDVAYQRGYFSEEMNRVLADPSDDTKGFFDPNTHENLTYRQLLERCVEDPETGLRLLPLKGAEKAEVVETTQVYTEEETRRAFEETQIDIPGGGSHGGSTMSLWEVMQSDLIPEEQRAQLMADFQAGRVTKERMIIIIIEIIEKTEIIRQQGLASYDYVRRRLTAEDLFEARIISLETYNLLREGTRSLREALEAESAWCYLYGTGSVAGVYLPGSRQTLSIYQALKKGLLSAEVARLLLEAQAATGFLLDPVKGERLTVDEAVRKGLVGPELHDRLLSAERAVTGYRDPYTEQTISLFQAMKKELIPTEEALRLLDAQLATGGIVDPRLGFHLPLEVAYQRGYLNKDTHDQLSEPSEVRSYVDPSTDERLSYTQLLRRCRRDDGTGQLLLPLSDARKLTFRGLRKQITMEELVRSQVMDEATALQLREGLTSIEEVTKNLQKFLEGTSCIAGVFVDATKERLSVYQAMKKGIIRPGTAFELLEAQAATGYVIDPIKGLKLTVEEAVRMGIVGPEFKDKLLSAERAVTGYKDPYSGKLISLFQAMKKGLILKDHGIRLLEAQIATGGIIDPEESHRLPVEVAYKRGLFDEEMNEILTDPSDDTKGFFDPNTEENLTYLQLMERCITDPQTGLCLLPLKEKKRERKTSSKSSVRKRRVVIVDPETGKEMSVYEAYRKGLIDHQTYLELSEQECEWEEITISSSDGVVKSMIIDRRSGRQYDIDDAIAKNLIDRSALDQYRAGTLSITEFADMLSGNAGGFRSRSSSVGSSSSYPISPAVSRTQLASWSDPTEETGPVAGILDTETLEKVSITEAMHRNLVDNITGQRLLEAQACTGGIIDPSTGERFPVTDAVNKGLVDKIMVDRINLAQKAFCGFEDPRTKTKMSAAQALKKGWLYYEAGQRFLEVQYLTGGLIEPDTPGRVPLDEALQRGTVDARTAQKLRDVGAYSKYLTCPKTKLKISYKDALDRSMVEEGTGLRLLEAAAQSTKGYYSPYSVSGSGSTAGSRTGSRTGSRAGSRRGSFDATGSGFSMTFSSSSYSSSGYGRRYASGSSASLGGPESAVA

bound cells after plectin siRNA knockdown vs control siRNA ([1]; H358, H1693, H1975 and H1993 cells): dramatic decrease
cells bound to PCS2-magnetic-beads in the presence of plectin antibody ([1]; all cell lines tested): fewer cells bound
Compound: COCCNCC(=O)N(CCCCN)CC(=O)N(CC(=O)N(CC(=O)N(CCCCN)CC(=O)NC(CCCCN)C(=O)N[C@H](CCCCN)C(=O)NC(CCSC)C(N)=O)C(C)c1ccccc1)Cc1ccc2c(c1)OCO2 (stereo partly drawn) [PCS2] (H-[Nme][Nlys][Gly(N-piperonyl)][X1][Nlys][ξK][dK][ξM]-NH2)
Plectin expression in PCS2-bound cells vs unbound cells ([2]; H358, HCC4017, H460, H1299, H2073, H1693, H1993, H1975, RT-QPCR): significantly higher
relative expression of SOX2 in PCS2-bead fractions ([2]; HCC4017, H358, H366, H460, vs unsorted or unbound fractions): increased expression of SOX2
CD44 expression in PCS2-coated magnetic-bead bound fractions [2, 3]: high
SOX2 expression in PCS2-coated magnetic-bead bound fractions [2, 3]: high
